Patent US20240034736A1, “HSD17B13 INHIBITORS AND USES THEREOF” (FL2022-001, Inc., priority 2020, published 2024)

Biological target: Recombinant human HSD17B13 enzyme (Homo sapiens (Human), UniProt Q7Z5P4)
Experiment: HSD17b13 NAD(P)H-Glo Biochemical Assay
Details: for IC50: 50 uM estradiol, 1 mM NAD+, read-out: HSD17β13 IC50; for inhibition at 30 µM: read-out: HSD17β13 inhibition at 30 uM
Procedure, shortened: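 Recombinant human HSD17B13 was pre-incubated with inhibitor for 20 min at RT in 20 mM Tris pH 7.4 with 0.002% Tween-20 and 0.02% BSA. Reaction then ran with 50 uM estradiol and 1 mM NAD+ (final) for 3 h at 37° C. NADH formed was detected by NAD(P)H-Glo luminescence after 1 h at RT.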

Recombinant human HSD17B13 enzyme, sequence (Q7Z5P4 20-300): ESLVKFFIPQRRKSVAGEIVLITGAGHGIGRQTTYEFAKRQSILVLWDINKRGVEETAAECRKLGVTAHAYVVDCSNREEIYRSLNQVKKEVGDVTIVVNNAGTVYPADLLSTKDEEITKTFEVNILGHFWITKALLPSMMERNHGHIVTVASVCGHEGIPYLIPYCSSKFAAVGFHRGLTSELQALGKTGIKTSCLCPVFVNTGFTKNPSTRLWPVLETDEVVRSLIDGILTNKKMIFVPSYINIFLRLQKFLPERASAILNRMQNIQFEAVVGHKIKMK

IC50 [µM] | inhibition at 30 µM [%] | SMILES
0.1 to 1 | – | CS(=O)(=O)N1CCN(c2cc3cn(-c4cc(F)c(F)c(O)c4F)nc3cn2)CC1 [Compound 19.30, 2,3,6-Trifluoro-5-(5-(4-(methylsulfonyl)piperazin-1-yl)-2H-pyrazolo[3,4-c]pyridine-2-yl)phenol]
0.1 to 1 | – | CC1(C)COCCN1c1cc2cnn(-c3cc(O)c(F)c(C(F)(F)F)c3)c2cn1 [Compound 19.32, 5-(5-(3,3-Dimethylmorpholino)-1H-pyrazolo[3,4-c]pyridine-1-yl)-2-fluoro-3-(trifluoromethyl)phenol]
0.1 to 1 | – | CC1CN(S(C)(=O)=O)CCN1c1cc2cn(-c3cc(O)c(F)c(C(F)(F)F)c3)nc2cn1 (centres unmarked) [Compound 19.34, 2-Fluoro-5-(5-(2-methyl-4-(methylsulfonyl)piperazin-1-yl)-2H-pyrazolo[3,4-c]pyridine-2-yl)-3-(trifluoromethyl)phenol]
– | 49 | CS(=O)(=O)N1CCN(c2cc3cn(-c4cc(O)cc(C#N)c4)nc3cn2)CC1 [Compound 19.35, 3-Hydroxy-5-(5-(4-(methylsulfonyl)piperazin-1-yl)-2H-pyrazolo[3,4-c]pyridine-2-yl)benzonitrile]
0.1 to 1 | – | CS(=O)(=O)N1CCN(c2cc3cnn(-c4cc(C(F)(F)F)c(F)c(O)c4F)c3cn2)CC1 [Compound 19.38, 2,6-Difluoro-3-(5-(4-(methylsulfonyl)piperazin-1-yl)-1H-pyrazolo[3,4-c]pyridine-1-yl)-5-(trifluoromethyl)phenol]
– | 39 | CS(=O)(=O)N1CCN(c2cc3cn(-c4cccc(O)c4C#N)nc3cn2)CC1 [Compound 19.40, 2-Hydroxy-6-(5-(4-(methylsulfonyl)piperazin-1-yl)-2H-pyrazolo[3,4-c]pyridine-2-yl)benzonitrile]
– | 45 | Cc1ccc(O)c(F)c1-n1ncc2cc(N3CCN(S(C)(=O)=O)CC3)ncc21 [Compound 19.43, 2-Fluoro-4-methyl-3-(5-(4-(methylsulfonyl)piperazin-1-yl)-1H-pyrazolo[3,4-c]pyridine-1-yl)phenol]
< 0.1 | – | Cc1nn(-c2cc(C(F)(F)F)c(F)c(O)c2F)c2cnc(N3CCOCC34CC4)cc12 [Compound 19.44, 2,6-Difluoro-3-(3-methyl-5-(7-oxa-4-azaspiro[2.5]octan-4-yl)-1H-pyrazolo[3,4-c]pyridine-1-yl)-5-(trifluoromethyl)phenol]
0.1 to 1 | – | Cc1nn(-c2cc(C(F)(F)F)c(F)c(O)c2F)c2cnc(N3CCN(S(C)(=O)=O)CC3)cc12 [Compound 19.45, 2,6-Difluoro-3-(3-methyl-5-(4-(methylsulfonyl)piperazin-1-yl)-1H-pyrazolo[3,4-c]pyridine-1-yl)-5-(trifluoromethyl)phenol]
< 0.1 | – | Cc1nn(-c2cc(C(F)(F)F)c(F)c(O)c2F)c2ccc(N(C)C3CCOCC3)nc12 [Compound 19.49, 2,6-Difluoro-3-(3-methyl-5-(methyl(tetrahydro-2H-pyran-4-yl)amino)-1H-pyrazolo[4,3-b]pyridine-1-yl)-5-(trifluoromethyl)phenol]
< 0.1 | – | Cc1nn(-c2cc(C(F)(F)F)c(F)c(O)c2F)c2cc(F)c(N3CCOCC34CC4)nc12 [Compound 19.50, 2,6-Difluoro-3-(6-fluoro-3-methyl-5-(7-oxa-4-azaspiro[2.5]octan-4-yl)-1H-pyrazolo[4,3-b]pyridine-1-yl)-5-(trifluoromethyl)phenol]
0.1 to 1 | – | COC1CCN(c2cc3c(C)nn(-c4cc(C(F)(F)F)c(F)c(O)c4F)c3cn2)CC1 [Compound 19.51, 2,6-Difluoro-3-(5-(4-methoxypiperidin-1-yl)-3-methyl-1H-pyrazolo[3,4-c]pyridine-1-yl)-5-(trifluoromethyl)phenol]
< 0.1 | – | COC1CCN(c2cc3c(C)nn(-c4cc(C(F)(F)F)c(F)c(O)c4F)c3cn2)C2(CC2)C1 (centres unmarked) [Compound 19.52, 2,6-Difluoro-3-(5-(7-methoxy-4-azaspiro[2.5]octan-4-yl)-3-methyl-1H-pyrazolo[3,4-c]pyridine-1-yl)-5-(trifluoromethyl)phenol]
< 0.1 | – | Cc1nn(-c2cc(C(F)(F)F)c(F)c(O)c2F)c2cnc(N3CCN(S(C)(=O)=O)CC34CC4)cc12 [Compound 19.53, 2,6-Difluoro-3-(3-methyl-5-(7-(methylsulfonyl)-4,7-diazaspiro[2.5]octan-4-yl)-1H-pyrazolo[3,4-c]pyridine-1-yl)-5-(trifluoromethyl)phenol]
0.1 to 1 | – | Cc1nn(-c2cc(C(F)(F)F)c(F)c(O)c2F)c2cnc(N3CCC(Oc4ccccc4)CC3)cc12 [Compound 19.55, 2,6-Difluoro-3-(3-methyl-5-(4-phenoxypiperidin-1-yl)-1H-pyrazolo[3,4-c]pyridine-1-yl)-5-(trifluoromethyl)phenol]
< 0.1 | – | Cc1nn(-c2cc(C(F)(F)F)c(F)c(O)c2F)c2cnc(N3CCN(S(=O)(=O)c4ccccc4)CC3)cc12 [Compound 19.56, 2,6-Difluoro-3-(3-methyl-5-(4-(phenylsulfonyl)piperazin-1-yl)-1H-pyrazolo[3,4-c]pyridine-1-yl)-5-(trifluoromethyl)phenol]

Continued, compound first:

SMILES | IC50 [µM] | inhibition at 30 µM [%]
CS(=O)(=O)N1CCN(c2cc3cnn(-c4ccc(Cl)c(O)c4F)c3cn2)CC1 [Compound 19.27, 6-Chloro-2-fluoro-3-(5-(4-(methylsulfonyl)piperazin-1-yl)-1H-pyrazolo[3,4-c]pyridine-1-yl)phenol] | 1 to 30 | –
Cc1cc(-n2ncc3cc(N4CCN(S(C)(=O)=O)CC4)ncc32)c(F)c(O)c1F [Compound 19.28, 2,6-Difluoro-3-methyl-5-(5-(4-(methylsulfonyl)piperazin-1-yl)-1H-pyrazolo[3,4-c]pyridine-1-yl)phenol] | 1 to 30 | –
CS(=O)(=O)N1CCN(c2cc3cnn(-c4cc(F)c(F)c(O)c4F)c3cn2)CC1 [Compound 19.29, 2,3,6-Trifluoro-5-(5-(4-(methylsulfonyl)piperazin-1-yl)-1H-pyrazolo[3,4-c]pyridine-1-yl)phenol] | 0.1 to 1 | –
CS(=O)(=O)N1CCN(c2cc3cnn(-c4ncc(Cl)c(O)c4F)c3cn2)CC1 [Compound 19.31, 5-Chloro-3-fluoro-2-(5-(4-(methylsulfonyl)piperazin-1-yl)-1H-pyrazolo[3,4-c]pyridine-1-yl)pyridine-4-ol] | 1 to 30 | –
CC1CN(S(C)(=O)=O)CCN1c1cc2cnn(-c3cc(O)c(F)c(C(F)(F)F)c3)c2cn1 (centres unmarked) [Compound 19.33, 2-Fluoro-5-(5-(2-methyl-4-(methylsulfonyl)piperazin-1-yl)-1H-pyrazolo[3,4-c]pyridine-1-yl)-3-(trifluoromethyl)phenol] | 0.1 to 1 | –
CS(=O)(=O)N1CCN(c2cc3cnn(-c4ccc(C#N)c(O)c4)c3cn2)CC1 [Compound 19.36, 2-Hydroxy-4-(5-(4-(methylsulfonyl)piperazin-1-yl)-1H-pyrazolo[3,4-c]pyridine-1-yl)benzonitrile] | – | 40
CS(=O)(=O)N1CCN(c2cc3cn(-c4ccc(C#N)c(O)c4)nc3cn2)CC1 [Compound 19.37, 2-Hydroxy-4-(5-(4-(methylsulfonyl)piperazin-1-yl)-2H-pyrazolo[3,4-c]pyridine-2-yl)benzonitrile] | – | 43
CS(=O)(=O)N1CCN(c2cc3cnn(-c4cccc(O)c4C#N)c3cn2)CC1 [Compound 19.39, 2-Hydroxy-6-(5-(4-(methylsulfonyl)piperazin-1-yl)-1H-pyrazolo[3,4-c]pyridine-1-yl)benzonitrile] | 1 to 30 | –
CS(=O)(=O)N1CCN(c2cc3cnn(-c4cc(O)ccc4C#N)c3cn2)CC1 [Compound 19.41, 4-Hydroxy-2-(5-(4-(methylsulfonyl)piperazin-1-yl)-1H-pyrazolo[3,4-c]pyridine-1-yl)benzonitrile] | 1 to 30 | –
Cc1ccc(-n2ncc3cc(N4CCN(S(C)(=O)=O)CC4)ncc32)c(F)c1O [Compound 19.42, 2-Fluoro-6-methyl-3-(5-(4-(methylsulfonyl)piperazin-1-yl)-1H-pyrazolo[3,4-c]pyridine-1-yl)phenol] | 1 to 30 | –
CS(=O)(=O)N1CCN(c2cc3cn(-c4cc(O)c(F)c(C(F)(F)F)c4)nc3cc2Cl)CC1 [Compound 19.46, 5-(6-Chloro-5-(4-(methylsulfonyl)piperazin-1-yl)-2H-indazol-2-yl)-2-fluoro-3-(trifluoromethyl)phenol] | < 0.1 | –
Cc1nn(-c2cc(C(F)(F)F)c(F)c(O)c2F)c2cnc(N(C)C3CCOCC3)cc12 [Compound 19.47, 2,6-Difluoro-3-(3-methyl-5-(methyl(tetrahydro-2H-pyran-4-yl)amino)-1H-pyrazolo[3,4-c]pyridin-1-yl)-5-(trifluoromethyl)phenol] | < 0.1 | –
Cc1nn(-c2cc(C(F)(F)F)c(F)c(O)c2F)c2ccc(N3CCOCC34CC4)nc12 [Compound 19.48, 2,6-Difluoro-3-(3-methyl-5-(7-oxa-4-azaspiro[2.5]octan-4-yl)-1H-pyrazolo[4,3-b]pyridine-1-yl)-5-(trifluoromethyl)phenol] | 0.1 to 1 | –
CCN(c1cc2c(C)nn(-c3cc(C(F)(F)F)c(F)c(O)c3F)c2cn1)C1CCOCC1 [Compound 19.54, 3-(5-(Ethyl(tetrahydro-2H-pyran-4-yl)amino)-3-methyl-1H-pyrazolo[3,4-c]pyridine-1-yl)-2,6-difluoro-5-(trifluoromethyl)phenol] | < 0.1 | –
Cc1nn(-c2cc(C(F)(F)F)c(F)c(O)c2F)c2cnc(N3CCN(S(=O)(=O)c4cnn(C)c4)CC3)cc12 [Compound 19.57, 2,6-Difluoro-3-(3-methyl-5-(4-((1-methyl-1H-pyrazol-4-yl)sulfonyl)piperazin-1-yl)-1H-pyrazolo[3,4-c]pyridin-1-yl)-5-(trifluoromethyl)phenol] | < 0.1 | –
COCCOC1CCN(c2cc3c(C)nn(-c4cc(C(F)(F)F)c(F)c(O)c4F)c3cn2)CC1 [Compound 19.58, 2,6-Difluoro-3-(5-(4-(2-methoxyethoxy)piperidin-1-yl)-3-methyl-1H-pyrazolo[3,4-c]pyridin-1-yl)-5-(trifluoromethyl)phenol] | < 0.1 | –
